Here are results for 15 molecules from patent US20260138976A1 (Hoffmann-La Roche Inc., priority 2022, published 2026).

Assay [1] concerns the target T1, DGKα (hDGKalpha(1-735)-N-His) (Homo sapiens, UniProt P23743).
T1 construct: hDGKalpha(1-735)-N-His; His (N); made in house; host or cells: Sf21 insect cells (baculovirus)
The experiment in a line: In vitro DGK inhibition assay, DGKalpha ADP Glo (in house). It counts as biochemical. The settings on record: 4 nM DGKα, 25 μM ATP, 125 uM DLG in liposomes, 1 hour reaction. In outline:
(§1)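 Full-length His-tagged human DGKα (4 nM) or DGKζ (2 nM), expressed in Sf21 cells, phosphorylated 125 µM DLG in PS/PC liposomes with ATP at 25 µM (α) or 50 µM (ζ) for 1 h. ADP was measured by ADP-Glo luminescence. Compounds were tested as 11-point 1:3 series in 2% DMSO.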
A general note: ADP-Glo first removes unused ATP, then detects ADP through luciferase.

Assay [2] addresses T2, DGKζ (hDGKzeta(1-928)-N-His) (Homo sapiens, UniProt Q13574).
T2 construct: hDGKzeta(1-928)-N-His; His (N); made in house; host or cells: Sf21 insect cells (baculovirus)
The experiment in a line: In vitro DGK inhibition assay, DGKzeta ADP Glo (in house). It counts as biochemical. The settings on record: 2 nM DGKζ, 50 μM ATP, 125 uM DLG in liposomes, 1 hour reaction. In short, it runs like this:
as §1

In a further assay the test system is primary human T-cells. The experiment in a line: IL2 secretion measurements (24 h, CD3-stimulated T-cells, PBS counter screen). It counts as cell-based. The settings on record: for Emax IL2 (% activation): CD3 condition, normalised to DMSO (neutral) and 20 μM reference compound A1 = 100%; for EC50: Homo sapiens, T-cell, CD3-stimulated primary human T-cells, IL2 secretion, fitted sigmoidal curve, read-out: Tcell IL2 CD3 EC50. In outline: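 Expanded primary human T-cells (100k/well) were plated on anti-CD3-coated or PBS-only plates with compound in a 5–6 point dose response (top 20 or 10 μM final, 3.333-fold, 0.2% DMSO). IL-2 in 24 h supernatants was quantified by ProQuantum immunoassay or ELISA. Values were normalized to DMSO and 20 μM reference compound A1 (100%), giving EC50 and Emax.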
(In general: Counterscreens check selectivity or assay interference.)

T1 sequence (P23743 whole entry): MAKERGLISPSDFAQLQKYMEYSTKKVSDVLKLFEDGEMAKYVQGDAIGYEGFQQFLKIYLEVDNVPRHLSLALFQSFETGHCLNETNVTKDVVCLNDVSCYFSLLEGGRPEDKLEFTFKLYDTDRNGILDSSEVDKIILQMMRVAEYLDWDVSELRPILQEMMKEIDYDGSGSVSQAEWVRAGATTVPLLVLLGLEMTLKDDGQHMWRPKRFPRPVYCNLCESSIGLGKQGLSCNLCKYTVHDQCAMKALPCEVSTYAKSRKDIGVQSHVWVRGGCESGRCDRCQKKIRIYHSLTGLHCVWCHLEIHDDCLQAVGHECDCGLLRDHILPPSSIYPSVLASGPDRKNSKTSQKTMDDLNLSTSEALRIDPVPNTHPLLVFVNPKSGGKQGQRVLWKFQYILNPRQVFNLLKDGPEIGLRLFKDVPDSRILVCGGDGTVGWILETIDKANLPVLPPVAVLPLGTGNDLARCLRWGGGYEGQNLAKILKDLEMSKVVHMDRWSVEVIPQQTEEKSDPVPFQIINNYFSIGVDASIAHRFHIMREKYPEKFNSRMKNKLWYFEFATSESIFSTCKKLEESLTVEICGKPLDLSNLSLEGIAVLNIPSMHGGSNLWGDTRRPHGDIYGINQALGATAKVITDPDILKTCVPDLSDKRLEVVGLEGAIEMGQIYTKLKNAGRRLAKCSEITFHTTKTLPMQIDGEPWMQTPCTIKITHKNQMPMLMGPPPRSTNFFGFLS
T2 sequence (Q13574 whole entry): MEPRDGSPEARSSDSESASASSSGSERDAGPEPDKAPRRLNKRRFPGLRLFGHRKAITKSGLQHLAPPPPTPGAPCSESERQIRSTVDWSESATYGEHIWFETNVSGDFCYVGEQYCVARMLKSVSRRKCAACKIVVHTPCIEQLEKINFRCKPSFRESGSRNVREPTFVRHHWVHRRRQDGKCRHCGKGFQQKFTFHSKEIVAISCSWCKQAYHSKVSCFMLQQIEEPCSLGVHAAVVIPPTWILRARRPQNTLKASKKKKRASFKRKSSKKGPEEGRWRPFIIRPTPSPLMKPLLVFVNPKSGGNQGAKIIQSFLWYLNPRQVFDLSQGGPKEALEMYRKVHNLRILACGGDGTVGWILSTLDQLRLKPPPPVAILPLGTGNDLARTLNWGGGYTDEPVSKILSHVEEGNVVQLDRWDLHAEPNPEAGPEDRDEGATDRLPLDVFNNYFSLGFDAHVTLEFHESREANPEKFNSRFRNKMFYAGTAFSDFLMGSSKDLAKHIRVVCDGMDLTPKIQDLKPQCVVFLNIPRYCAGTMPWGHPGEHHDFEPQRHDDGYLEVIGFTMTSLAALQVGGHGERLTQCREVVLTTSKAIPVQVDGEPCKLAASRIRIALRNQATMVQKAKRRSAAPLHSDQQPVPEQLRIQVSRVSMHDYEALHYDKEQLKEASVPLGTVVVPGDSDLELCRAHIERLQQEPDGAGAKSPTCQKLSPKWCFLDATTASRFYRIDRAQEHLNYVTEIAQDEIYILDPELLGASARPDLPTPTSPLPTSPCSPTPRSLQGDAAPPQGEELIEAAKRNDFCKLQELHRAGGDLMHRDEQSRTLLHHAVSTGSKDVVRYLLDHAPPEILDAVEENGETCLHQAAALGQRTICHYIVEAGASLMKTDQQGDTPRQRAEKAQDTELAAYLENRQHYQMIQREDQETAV

As for `CC(C)(C#N)c1nnc(-c2ccc3c(c2)N(Cc2ccc(-c4ccc(C(F)(F)F)cc4)cc2)C(=O)[C@@H](N)CS3(=O)=O)o1` [Example 46], in assay [1], half-maximal inhibition (IC50) required 16.2 µM. Further, 1.27 µM corresponded to half-maximal inhibition in assay [2] (IC50). Besides, in the assay on primary human T-cells, the “Emax IL2 (% activation)” value stood at 263 % activation and the EC50 (in general, the concentration needed to bring the measured effect to its halfway point) is 0.331 µM.
For `COCC1CN(c2nnc(-c3ccc4c(c3)N(Cc3ccc(-c5noc(C(F)(F)F)n5)cc3)C(=O)[C@@H](N)CS4(=O)=O)o2)CCO1` (stereo partly drawn) [Example 164, (3R)-3-amino-7-[5-[2-(methoxymethyl)morpholin-4-yl]-1,3,4-oxadiazol-2-yl]-1,1-dioxo-5-[[4-[5-(trifluoromethyl)-1,2,4-oxadiazol-3-yl]phenyl]methyl]-2,3-dihydro-1λ^6,5-benzothiazepin-4-one], in that order: more than 62.5 µM, 2.03 µM, 156 % activation and 3.3 µM.
Regarding `CC1(c2nnc(-c3ccc4c(c3)N(Cc3ccc(-c5noc(C(F)(F)F)n5)cc3)C(=O)[C@@H](N)CS4(=O)=O)o2)COC1` [Example 149, (3R)-3-amino-7-[5-(3-methyloxetan-3-yl)-1,3,4-oxadiazol-2-yl]-1,1-dioxo-5-[[4-[5-(trifluoromethyl)-1,2,4-oxadiazol-3-yl]phenyl]methyl]-2,3-dihydro-1λ^6,5-benzothiazepin-4-one], the IC50 (as a rule, the midpoint of a concentration-inhibition curve) in assay [1] was more than 62.5 µM. The molecule also gave an IC50 in assay [2] of 4.25 µM. In the assay on primary human T-cells, the “Emax IL2 (% activation)” value turned out to be 268 % activation and the EC50 stood at 0.567 µM.
As to `N#CC1CN(c2nnc(-c3ccc4c(c3)N(Cc3ccc(-c5noc(C(F)(F)F)n5)cc3)C(=O)[C@@H](N)CS4(=O)=O)o2)CCO1` (stereo partly drawn) [Example 163, 4-[5-[(3R)-3-amino-1,1,4-trioxo-5-[[4-[5-(trifluoromethyl)-1,2,4-oxadiazol-3-yl]phenyl]methyl]-2,3-dihydro-1λ^6,5-benzothiazepin-7-yl]-1,3,4-oxadiazol-2-yl]morpholine-2-carbonitrile], the IC50 is more than 62.5 µM in assay [1] and 10.6 µM in assay [2]. In addition, the “Emax IL2 (% activation)” value with primary human T-cells was 152 % activation. The EC50 in the assay with primary human T-cells turned out to be 2.39 µM.
The matching figures for `COC(=O)N1CC2CC(c3nnc(-c4ccc5c(c4)N(Cc4ccc(-c6ccc(C(F)(F)F)cn6)cc4)C(=O)[C@@H](N)CS5(=O)=O)o3)(C2)C1` [Example 159, methyl 1-[5-[(3R)-3-amino-1,1,4-trioxo-5-[[4-[5-(trifluoromethyl)-2-pyridyl]phenyl]methyl]-2,3-dihydro-1λ^6,5-benzothiazepin-7-yl]-1,3,4-oxadiazol-2-yl]-3-azabicyclo[3.1.1]heptane-3-carboxylate]: 1.95 µM, 1.35 µM, 188 % activation and 0.912 µM.
Regarding `CC(C)(C)c1nnc(-c2ccc3c(c2)N(Cc2ccc(-n4cc(C(F)(F)F)cn4)cc2)C(=O)[C@@H](N)CS3(=O)=O)o1` [Example 25, (3R)-3-amino-7-(5-tert-butyl-1,3,4-oxadiazol-2-yl)-1,1-dioxo-5-[[4-[4-(trifluoromethyl)pyrazol-1-yl]phenyl]methyl]-2,3-dihydro-1λ^6,5-benzothiazepin-4-one], the IC50 in assay [1] is 3.54 µM; in assay [2], 1.27 µM. In addition, the “Emax IL2 (% activation)” value in the assay on primary human T-cells turned out to be 137 % activation. Also, in the assay on primary human T-cells, the EC50 is 0.609 µM.
For `C[C@](N)(c1nnc(-c2ccc3c(c2)N(Cc2ccc(-c4noc(C(F)(F)F)n4)cc2)C(=O)[C@@H](N)CS3(=O)=O)o1)C(F)(F)F` [Example 53, (3R)-3-amino-7-[5-[(1S)-1-amino-2,2,2-trifluoro-1-methyl-ethyl]-1,3,4-oxadiazol-2-yl]-1,1-dioxo-5-[[4-[5-(trifluoromethyl)-1,2,4-oxadiazol-3-yl]phenyl]methyl]-2,3-dihydro-1λ^6,5-benzothiazepin-4-one], in that order: 43.4 µM, 2.42 µM, 187 % activation and 2.07 µM.
For `COCCN1CC(c2nnc(-c3ccc4c(c3)N(Cc3ccc(-c5ccc(OC)cc5)cc3)C(=O)[C@@H](N)CS4(=O)=O)o2)CC(F)(F)C1` (stereo partly drawn) [Example 183, (3R)-3-amino-7-[5-[5,5-difluoro-1-(2-methoxyethyl)-3-piperidyl]-1,3,4-oxadiazol-2-yl]-5-[[4-(4-methoxyphenyl)phenyl]methyl]-1,1-dioxo-2,3-dihydro-1λ^6,5-benzothiazepin-4-one], in that order: more than 62.5 µM, 0.97 µM, 69 % activation and 6.44 µM.
The matching figures for `N[C@H]1CS(=O)(=O)c2ccc(-c3nnc(N4CCC(F)(F)CC4)o3)cc2N(Cc2ccc(-c3nc(C(F)(F)F)no3)cc2)C1=O` [Example 161, (3R)-3-amino-7-[5-(4,4-difluoro-1-piperidyl)-1,3,4-oxadiazol-2-yl]-1,1-dioxo-5-[[4-[3-(trifluoromethyl)-1,2,4-oxadiazol-5-yl]phenyl]methyl]-2,3-dihydro-1λ^6,5-benzothiazepin-4-one]: more than 62.5 µM, 1.92 µM, 150 % activation and 3.21 µM.
With `CC1(Nc2nnc(-c3ccc4c(c3)N(Cc3ccc(-c5noc(C(F)(F)F)n5)cc3)C(=O)[C@@H](N)CS4(=O)=O)o2)CC(F)(F)C1` [Example 72, (3R)-3-amino-7-[5-[(3,3-difluoro-1-methyl-cyclobutyl)amino]-1,3,4-oxadiazol-2-yl]-1,1-dioxo-5-[[4-[5-(trifluoromethyl)-1,2,4-oxadiazol-3-yl]phenyl]methyl]-2,3-dihydro-1λ^6,5-benzothiazepin-4-one], the IC50 in assay [1] is more than 62.5 µM. For the same molecule, the half-inhibitory concentration (IC50) in assay [2] was 20.9 µM. Further, in the assay with primary human T-cells, the “Emax IL2 (% activation)” value was 238 % activation and the EC50 stood at 3.28 µM.
For `CC(C)(C#N)c1nnc(-c2ccc3c(c2)N(Cc2ccc(-c4ccc(OC(F)(F)F)cn4)cc2)C(=O)[C@@H](N)CS3(=O)=O)o1` [Example 124], in that order: 2.4 µM, 0.801 µM, 154 % activation and 0.278 µM.
Take `CC(C)(C)c1nnc(-c2ccc3c(c2)N(Cc2ccc(-n4cnc(C(F)(F)F)n4)cc2)C(=O)[C@@H](N)CS3(=O)=O)o1` [Example 91, (3R)-3-amino-7-(5-tert-butyl-1,3,4-oxadiazol-2-yl)-1,1-dioxo-5-[[4-[3-(trifluoromethyl)-1,2,4-triazol-1-yl]phenyl]methyl]-2,3-dihydro-126,5-benzothiazepin-4-one]: the IC50 in assay [1] was 4.24 µM; in assay [2], 3.01 µM. For the same molecule, the “Emax IL2 (% activation)” value with primary human T-cells was 113 % activation. The EC50 with primary human T-cells stood at 3.6 µM.
The matching figures for `N[C@H]1CS(=O)(=O)c2ccc(-c3nnc(N4CCOC(C(F)(F)F)C4)o3)cc2N(Cc2ccc(-c3ccc(C(F)(F)F)cn3)cc2)C1=O` (stereo partly drawn) [Example 75, (3R)-3-amino-1,1-dioxo-7-[5-[2-(trifluoromethyl)morpholin-4-yl]-1,3,4-oxadiazol-2-yl]-5-[[4-[5-(trifluoromethyl)-2-pyridyl]phenyl]methyl]-2,3-dihydro-1λ^6,5-benzothiazepin-4-one]: 45.7 µM, 2.68 µM, 140 % activation and 2.55 µM.
The matching figures for `CCC(O)(c1nnc(-c2ccc3c(c2)N(Cc2ccc(-c4noc(C5CC5)n4)cc2)C(=O)[C@@H](N)CS3(=O)=O)o1)C(F)(F)F` (stereo partly drawn) [Example 169]: more than 19.8 µM, 1.77 µM, 128 % activation and 3.17 µM.
With `CC(C)(C)c1nnc(-c2ccc3c(c2)N(Cc2ccc(-n4cnc(C(F)(F)F)c4)cc2)C(=O)[C@@H](N)CS3(=O)=O)o1` [Example 28, (3R)-3-amino-7-(5-tert-butyl-1,3,4-oxadiazol-2-yl)-1,1-dioxo-5-[[4-[4-(trifluoromethyl)imidazol-1-yl]phenyl]methyl]-2,3-dihydro-1λ^6,5-benzothiazepin-4-one], the values for the IC50 in assay [1] and in assay [2] were 37.3 µM and 4.26 µM, respectively. The “Emax IL2 (% activation)” value with primary human T-cells is given as 81 % activation. Also, the EC50 with primary human T-cells amounted to 5.01 µM.
